From US10683553B2, “Method for determining sensitivity to simultaneous inhibitor against PARP and Tankyrase” (THE ASAN FOUNDATION, priority 2015, dated 2020)

What was measured:
Test in all cases: Trypan blue staining apoptosis assay
Type in all cases: cell-based
[1] = system: SW620 human colon cancer cell line; conditions: SW620 (p53 MT/LIG4 WT); 25 μM and 50 μM, 48 hours
Description: (§1) In order to analyze the degree of apoptosis of Compound A, which is a novel PARP/Tankyrase simultaneous inhibitor according to a p53 genotype and LIG4 genotype, the present inventors treated a novel PARP/Tankyrase simultaneous inhibitor, Compound A, and a competitive drug PARP inhibitor, olaparib, in RKO, LoVo human colon cancer cell line in which the p53 gene is a normal type and the LIG4 gene is a mutant type and an SW620 human colon cancer cell line in which the p53 gene is a mutant type and the LIG4 gene is a normal type. The number of cells was measured by trypan blue staining assay to confirm the degree of apoptosis. The conditions and methods of the experiment were as follows: RKO, LoVo human colon cancer cell line in which the p53 gene is a normal type and the LIG4 gene is a mutant type and the SW620 human colon cancer cell line in which the p53 gene is a mutant type and the LIG4 gene is a normal type were cultured in RPMI1640 (10% FBS, 1% penicillin/streptomycin) and cultured in a 60 mm plate at 1×10^5 per well for 24 hours at 37° C. Compound A, which is a novel PARP/Tankyrase simultaneous inhibitor, and olaparib, which is a competitive drug PARP inhibitor, were treated with each of 25 μM and 50 μM and were cultured for 48 hours. The number of cells was measured by trypan blue staining assay to confirm the degree of apoptosis.
(§2) In order to analyze the degree of apoptosis of Compounds A and B, which are novel PARP/Tankyrase simultaneous inhibitors, in a cell line RKO in which the p53 genotype is a normal type and an LIG4 genotype is a mutant type, a cell line SW620 in which the p53 genotype is a mutant type and an LIG4 genotype is a normal type, a cell line HCT8 in which the p53 genotype and an LIG4 genotype are normal, and a cell line KM12C in which the p53 genotype and an LIG4 genotype are mutant, the human colon cancer cell lines of RKO, HCT, SW620 and KM12C with different p53 genotype and LIG4 genotype were cultured in RPMI1640 (10% FBS, 1% penicillin/streptomycin) and cultured in a 60 mm plate at 1×10^5 per well for 24 hours at 37° C. Compounds A and B, which are novel PARP/Tankyrase simultaneous inhibitors, and olaparib, which is a competitive drug PARP inhibitor, and NVP-TNKS656, which is a Tankyrase inhibitor, were treated with each of 25 μM and 50 μM. After 48 hours of culturing, the number of cells was measured by trypan blue staining assay to confirm the degree of apoptosis.

[2] = system: RKO human colon cancer cell line; conditions: RKO (p53 WT/LIG4 MT); 25 μM and 50 μM, 48 hours
Description: as §1
In order to analyze the degree of apoptosis of Compound A, which is a novel PARP/Tankyrase simultaneous inhibitor, according to the p53 genotype and an LIG4 genotype, the present inventors treated Compounds A and B, which are novel PARP/Tankyrase simultaneous inhibitors, in the RKO and LoVo human colon cancer cell lines in which the p53 gene is a normal type and an LIG4 gene is a mutant type. Then, the number of cells was measured by trypan blue staining assay to confirm the degree of apoptosis. The RKO and LoVo human colon cancer cell lines were cultured under the same conditions as in Example 5. Compounds A and B, which are novel PARP/Tankyrase simultaneous inhibitors, were treated with 25 μM and 50 μM, respectively, for 48 hours. After 48 hours of culturing, the number of cells was measured by trypan blue staining assay to confirm the degree of apoptosis. […]

[3] = system: HCT8 human colon cancer cell line; conditions: HCT8 (p53 WT/LIG4 WT); 25 μM and 50 μM, 48 hours
Description: as §2

[4] = system: KM12C human colon cancer cell line; conditions: KM12C (p53 MT/LIG4 MT); 25 μM and 50 μM, 48 hours
Description: as §2

SMILES: COc1ccc(C(=O)C2CCN(CC(=O)N(Cc3nc4c(c(=O)[nH]3)COCC4)CC3CC3)CC2)cc1 [NVP-TNKS656, reference compound]
- degree of apoptosis (trypan blue cell count) [1]: No apoptosis occurred
- degree of apoptosis (trypan blue cell count) [2]: no change in apoptosis
- degree of apoptosis (trypan blue cell count) [3]: No apoptosis occurred
- degree of apoptosis (trypan blue cell count) [4]: No apoptosis occurred
